Measurements from PubChem BioAssay (NCI).
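Growth conditions: 96-well plates. Treatment: test compound, 48 hours, 5 concentrations. Analysis: linear interpolation between bracketing concentrations; unreached endpoints set to highest concentration. GI50 marks 50% less growth. TGI: concentration producing complete growth inhibition.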

What was measured:
Test in all cases: NCI tumour cell line growth inhibition, 48 h
NCI-H460 lung = tested on: NCI-H460 lung
SW-620 colon = tested on: SW-620 colon
K-562 leukemia = tested on: K-562 leukemia
LOX IMVI melanoma = tested on: LOX IMVI melanoma
A549 NSCLC = tested on: A549 NSCLC
HT29 colon = tested on: HT29 colon
UO-31 renal = tested on: UO-31 renal
A498 renal = tested on: A498 renal
HL-60(TB) leukemia = tested on: HL-60(TB) leukemia
HS 578T breast = tested on: HS 578T breast
ACHN renal = tested on: ACHN renal
TK-10 renal = tested on: TK-10 renal
HCT-116 colon = tested on: HCT-116 colon
COLO 205 colon = tested on: COLO 205 colon
SF-295 CNS = tested on: SF-295 CNS
SN12C renal = tested on: SN12C renal
PC-3 prostate = tested on: PC-3 prostate
U251 CNS = tested on: U251 CNS
SF-539 CNS = tested on: SF-539 CNS
CCRF-CEM leukemia = tested on: CCRF-CEM leukemia
SK-MEL-2 melanoma = tested on: SK-MEL-2 melanoma
OVCAR-8 ovarian = tested on: OVCAR-8 ovarian
RPMI-8226 leukemia = tested on: RPMI-8226 leukemia
HOP-92 NSCLC = tested on: HOP-92 NSCLC
MCF7 breast = tested on: MCF7 breast
SF-268 CNS = tested on: SF-268 CNS
MALME-3M melanoma = tested on: MALME-3M melanoma
UACC-62 melanoma = tested on: UACC-62 melanoma
T-47D breast = tested on: T-47D breast
SNB-75 CNS = tested on: SNB-75 CNS
SR leukemia = tested on: SR leukemia
OVCAR-4 ovarian = tested on: OVCAR-4 ovarian
BT-549 breast = tested on: BT-549 breast
CAKI-1 renal = tested on: CAKI-1 renal
MDA-MB-231 breast = tested on: MDA-MB-231 breast
EKVX NSCLC = tested on: EKVX NSCLC
DU-145 prostate = tested on: DU-145 prostate
HCT-15 colon = tested on: HCT-15 colon
NCI/ADR-RES ovarian = tested on: NCI/ADR-RES ovarian
UACC-257 melanoma = tested on: UACC-257 melanoma
NCI-H23 lung = tested on: NCI-H23 lung
SK-MEL-5 melanoma = tested on: SK-MEL-5 melanoma
NCI-H522 lung = tested on: NCI-H522 lung
IGROV1 ovarian = tested on: IGROV1 ovarian
MOLT-4 leukemia = tested on: MOLT-4 leukemia
KM12 colon = tested on: KM12 colon
MDA-MB-435 = tested on: MDA-MB-435
SNB-19 CNS = tested on: SNB-19 CNS
OVCAR-5 ovarian = tested on: OVCAR-5 ovarian
OVCAR-3 ovarian = tested on: OVCAR-3 ovarian
SK-OV-3 ovarian = tested on: SK-OV-3 ovarian
HOP-62 NSCLC = tested on: HOP-62 NSCLC
NCI-H226 lung = tested on: NCI-H226 lung
786-0 renal = tested on: 786-0 renal
HCC-2998 colon = tested on: HCC-2998 colon
RXF 393 renal = tested on: RXF 393 renal
M14 melanoma = tested on: M14 melanoma

SMILES: COc1cc(-c2nccn2-c2ccc3ccccc3c2)cc(OC)c1OC
- GI50 (NCI-H460 lung): < 0.0215 µM
- TGI (NCI-H460 lung): 11.7 µM
- GI50 (SW-620 colon): 0.024 µM
- TGI (SW-620 colon): 25.2 µM
- GI50 (K-562 leukemia): < 0.0156 µM
- TGI (K-562 leukemia): > 32.3 µM
- GI50 (LOX IMVI melanoma): 1.53 µM
- TGI (LOX IMVI melanoma): 19 µM
- GI50 (A549 NSCLC): 0.74 µM
- TGI (A549 NSCLC): > 65.5 µM
- GI50 (HT29 colon): < 0.0196 µM
- TGI (HT29 colon): 14 µM
- GI50 (UO-31 renal): 1.65 µM
- TGI (UO-31 renal): > 62.6 µM
- GI50 (A498 renal): 0.0778 µM
- TGI (A498 renal): 1.36 µM
- GI50 (HL-60(TB) leukemia): < 0.0176 µM
- TGI (HL-60(TB) leukemia): 1.33 µM
- GI50 (HS 578T breast): 0.0668 µM
- TGI (HS 578T breast): 71.5 µM
- GI50 (ACHN renal): 2.59 µM
- TGI (ACHN renal): 49.6 µM
- GI50 (TK-10 renal): 2.94 µM
- TGI (TK-10 renal): > 87.6 µM
- GI50 (HCT-116 colon): 0.04 µM
- TGI (HCT-116 colon): 11.7 µM
- GI50 (COLO 205 colon): 0.0402 µM
- TGI (COLO 205 colon): 2.44 µM
- GI50 (SF-295 CNS): < 0.0159 µM
- TGI (SF-295 CNS): 15.5 µM
- GI50 (SN12C renal): 0.666 µM
- TGI (SN12C renal): 22.6 µM
- GI50 (PC-3 prostate): 0.0453 µM
- TGI (PC-3 prostate): > 100 µM
- GI50 (U251 CNS): 0.0547 µM
- TGI (U251 CNS): 16.7 µM
- GI50 (SF-539 CNS): 0.0466 µM
- TGI (SF-539 CNS): 0.625 µM
- GI50 (CCRF-CEM leukemia): 0.048 µM
- TGI (CCRF-CEM leukemia): 32.5 µM
- GI50 (SK-MEL-2 melanoma): 6.2 µM
- TGI (SK-MEL-2 melanoma): > 50.3 µM
- GI50 (OVCAR-8 ovarian): 0.489 µM
- TGI (OVCAR-8 ovarian): > 88 µM
- GI50 (RPMI-8226 leukemia): 0.19 µM
- TGI (RPMI-8226 leukemia): 17.5 µM
- GI50 (HOP-92 NSCLC): 10.1 µM
- TGI (HOP-92 NSCLC): 31.4 µM
- GI50 (MCF7 breast): < 0.013 µM
- TGI (MCF7 breast): 15.8 µM
- GI50 (SF-268 CNS): 0.335 µM
- TGI (SF-268 CNS): 18.9 µM
- GI50 (MALME-3M melanoma): 16 µM
- TGI (MALME-3M melanoma): 47.6 µM
- GI50 (UACC-62 melanoma): < 0.0177 µM
- TGI (UACC-62 melanoma): 14.5 µM
- GI50 (T-47D breast): 17.7 µM
- TGI (T-47D breast): 94.8 µM
- GI50 (SNB-75 CNS): 0.0605 µM
- TGI (SNB-75 CNS): 24.8 µM
- GI50 (SR leukemia): < 0.0147 µM
- TGI (SR leukemia): 7.06 µM
- GI50 (OVCAR-4 ovarian): 2.04 µM
- TGI (OVCAR-4 ovarian): 44.6 µM
- GI50 (BT-549 breast): 0.0995 µM
- TGI (BT-549 breast): 15.6 µM
- GI50 (CAKI-1 renal): < 0.0268 µM
- TGI (CAKI-1 renal): 47 µM
- GI50 (MDA-MB-231 breast): 0.333 µM
- TGI (MDA-MB-231 breast): 22.6 µM
- GI50 (EKVX NSCLC): 0.379 µM
- TGI (EKVX NSCLC): 48.1 µM
- GI50 (DU-145 prostate): 0.0844 µM
- TGI (DU-145 prostate): > 32.3 µM
- GI50 (HCT-15 colon): < 0.0226 µM
- TGI (HCT-15 colon): 12.6 µM
- TGI (NCI/ADR-RES ovarian): 0.0273 µM
- GI50 (UACC-257 melanoma): 12.9 µM
- TGI (UACC-257 melanoma): 41.3 µM
- GI50 (NCI-H23 lung): 0.0789 µM
- TGI (NCI-H23 lung): 5.53 µM
- GI50 (SK-MEL-5 melanoma): < 0.0195 µM
- TGI (SK-MEL-5 melanoma): 4.45 µM
- GI50 (NCI-H522 lung): < 0.0218 µM
- TGI (NCI-H522 lung): 20.4 µM
- GI50 (IGROV1 ovarian): 1.11 µM
- TGI (IGROV1 ovarian): > 41.2 µM
- GI50 (MOLT-4 leukemia): 0.0708 µM
- TGI (MOLT-4 leukemia): 17 µM
- GI50 (KM12 colon): < 0.0166 µM
- TGI (KM12 colon): 18.2 µM
- TGI (MDA-MB-435): 0.0511 µM
- GI50 (SNB-19 CNS): 0.0985 µM
- TGI (SNB-19 CNS): 24.3 µM
- GI50 (OVCAR-5 ovarian): 0.469 µM
- TGI (OVCAR-5 ovarian): 24.2 µM
- GI50 (OVCAR-3 ovarian): < 0.0176 µM
- TGI (OVCAR-3 ovarian): 1.61 µM
- GI50 (SK-OV-3 ovarian): 0.99 µM
- TGI (SK-OV-3 ovarian): 74 µM
- GI50 (HOP-62 NSCLC): 0.0675 µM
- TGI (HOP-62 NSCLC): 18.3 µM
- GI50 (NCI-H226 lung): 0.206 µM
- TGI (NCI-H226 lung): 20.3 µM
- GI50 (786-0 renal): 0.0564 µM
- TGI (786-0 renal): 12.5 µM
- GI50 (HCC-2998 colon): < 0.0367 µM
- TGI (HCC-2998 colon): 1.66 µM
- GI50 (RXF 393 renal): 0.254 µM
- TGI (RXF 393 renal): 28.7 µM
- GI50 (M14 melanoma): 0.0613 µM
- TGI (M14 melanoma): 12.7 µM
